Source: EP1229027A1 (priority 1996, dated 1998)

Experiments:
Phytophthora infestans = type: in vivo; conditions: Rate 300 ppm; tomato seedlings; evaluated 6 days after inoculation
Plasmopara viticola = conditions: in vivo
Pythium ultimum = test: Fungitoxicity against Pythium ultimum (mycelial dry weight growth in liquid asparagine-sucrose broth); type: cell-based; conditions: Globisporangium ultimum; 100 ppm of the compound; 48 hours at 25 °C; increase in mycelial dry weight compared to controls
Method: Compounds were tested for fungitoxicity against Pythium ultimum according to the procedures set forth below.
Test compounds were dissolved in dimethylsulfoxide at 20 mg/ml and 0.1 ml was added to 19.9 ml of a liquid asparagine-sucrose broth, prepared according to the method described in Erwin, D.C., and Katznelson, K., Canadian Journal of Microbiology 7, 15 (1971), in 9 cm petri dishes to give a concentration of 100 ppm of the compound. Each plate was inoculated with a mycelial plug, 7 mm in diameter, taken from the growing edge of a culture of Pythium ultimum grown on potato dextrose agar. Two replicate plates were used for each treatment. After growth for 48 hours at 25 °C with shaking on a gyrotary shaker at 60 rpm, the increase in mycelial dry weight was determined. Fungitoxicity was recorded as percent inhibition of growth as compared to controls lacking the test compounds. 2.

Structure (SMILES)	TLB (percent disease control) (Phytophthora infestans) [%]	GDM (percent disease control) (Plasmopara viticola) [%]	inhibition at 100 ppm (Pythium ultimum) [%]
CCC(C)(NC(=O)c1ccc2nc(C)oc2c1)C(=O)CCl (stereo not shown) [Compound 2, N-(3-chloro-1-ethyl-1-methyl-2-oxopropyl)-2-methylbenzoxazole-6-carboxamide]	90	100	92.2
CCC(C)(NC(=O)c1ccc2c(c1)NC(=O)CO2)C(=O)C(Cl)Cl (stereo not shown) [Compound 13, N-(3,3-dichloro-1-ethyl-1-methyl-2-oxopropyl)-1,4-benzoxazine-3-one-6-carboxamide]			60.8
CCC(C)(NC(=O)c1ccc2c(c1)NC(=O)CO2)C(=O)CCl (stereo not shown) [Compound 11, N-(3-chloro-1-ethyl-1-methyl-2-oxopropyl)-1,4-benzoxazine-3-one-6-carboxamide]	95	0	34.3
